≈ marks a conversion by molar mass, not a printed value. Where “and” joins values, the source holds several entries; their conditions need not be identical. Equal entries are not always repeated. Where two headings read alike, the source gives them in different places.
Tests used:
Assay type in all cases: cell-based
TPA-induced BCBL-1 cells = assay: Kaposi's Sarcoma test: toxicity values; design: Toxicity Values, samples 1-3 / Toxicity Values, average: scale not given here
Method: (§1) The DNA copy number and the toxicity value were measured and compared with Cidofovir.

[1] = Kaposi's Sarcoma test: toxicity values; design: Toxicity Values, samples 1-3 / Toxicity Values, average: scale not given here; settings: human, TPA-induced BCBL-1 cells (HHV8 cell line); read-out: TC50 (the source's name)
Method: as §1

Curvularia lunata = assay: Anti-fungal activity (NCCLS M-27A based), Curvularia lunata
Method: It was active against cryptococcus neoformans and curvularai lunata. The cidal activity for the C. neoformans is high enough that it is clear […] against this yeast. This test was conducted using a method based upon NCCLS reference method M-27A published in 1997. Solvent, medium and growth controls were set-up with the tests. Once these were read to validate the test performance, the QC fungi were read to insure they had expected results. These steps validated the test system. DMSO was used as a drug-chemical solvent. […] The 90% cut-off is necessary for azoles, which are static and not cidal. The FMC or cidal level was determined by sub-culturing a sample from each tube showing no growth.

HIV-1 cell line, CEMRF = settings: for reverse transcriptase data: 7 μg/ml
Method: (§2) A microtiter-based reveres transcriptase (RT) reaction is utilized (Buckheit et al (1991) AIDS Research and Human Retroviruses 7:295-302). Tritiated thymidine triphosphate (NEN)(TTP) is resuspended in distilled water at 5 Ci/ml. Poly rA and oligo dT are prepared as a stock solution which is kept at −20° C. The RT reaction buffer is prepared fresh on a daily basis and consists of 125 μl 1M EGTA, 125 μl water, 125 μl Triton X-100, 50 μl Tris (pH 7.4), 50 μl 1 MDDT, and 40 μl 1M MgCl2. These three solutions are mixed together in a ratio of 1 part TTP, 2.5 parts poly rA:oligo dT, 2.5 parts reaction buffer and 4 parts distilled water. Ten microliters of this reaction mixture is placed in a round bottom microtiter place and 15 μl of virus containing supernatant is added and mixed. The plate is incubated at 37° C. for 60 minutes. Following reaction, the reaction volume is spotted onto filter mats, washed 6 times for 5 minutes each in a 5% sodium phosphate buffer, 2 times for 1 minute each in distilled water, 2 times for 1 minute each in 70% ethanol, and then dried. The dried filter mat is placed in a plastic sample bag, Betaplate scintillation fluid is added and the bag is heat sealed. Incorporated radioactivity is quantified utilizing a Wallac Microbeta scintillation counter.
Acute infection of most established human cell lines with HIV-1 results in the eventual establishment of a constitutive virus-producing chronically infected cell line. The cells can be passaged for long periods of time in culture without loss of virus production. These cells may be utilized to evaluate the effects of anti-HIV compounds on syncytium formation or to evaluate the effects of anti-HIV compounds on levels of virus production from these cells. […] Each of the cells contains an integrated HIV genome or provirus. Chronically infected CEM, H9 and U937 cell lines have been prepared and cultured by Southern Research Institute, Frederick Md. and are available from them.
CEM-SS cells chronically infected with HIV isolate, for example SKI (CEM-SKI) are cultured in RPMI1640 tissue culture medium supplemented with 10% fetal bovine serum and antibiotics. Selection is performed by culturing the cells in the presence of the compound to be tested in T25 flasks. CEM-SKI or other infected cells with no added drug are used as the control cells. Cells are allowed to grow to a density of approximately 1×10^6 cells/ml and are then passaged at a 1:10 dilution. […] The drug concentration in the flask is then increased two-fold and the cells maintained as above.
The cell populations contain integrated copies of the HIV genome and constitutively produce HIV at relatively high levels or are latently infected and only produce virus after stimulation with phorbol esters, tumor necrosis factor or IL6 (U1 and ACH2).
A long term in vitro study of 2-(2-thienyl)-imidazolo [4,5-b]pyridine against an HIV-1 cell line, CEMRF, was conducted at three different levels. […] CEMRF is a chronic HIV cell line.

HIV-2 virus, CEMROD = assay: In vitro screening against HIV-2 virus, CEMROD: reverse transcriptase activity; design: Reverse Transcriptase Activity, samples 1-3 / Reverse Transcriptase Activity, average: unit not given here
Method: as §2

[2] = Table 2 duplicate study, 0.32 μg/ml
[3] = Table 2 duplicate study, 1 μg/ml
[4] = Table 2 duplicate study, 1.0 μg/ml
[5] = Table 2 duplicate study, 3.2 μg/ml
[6] = Table 2 duplicate study, 32 μg/ml
[7] = Table 2 duplicate study, 100 μg/ml

Q: Which “Toxicity Values, % cell control” value (TPA-induced BCBL-1 cells; 0.64 μM) does the source give for c1csc(-c2nc3cccnc3[nH]2)c1 [2-(2-thienyl)-imidazolo [4,5-b]pyridine] here?
A: Its value is 110.5%.

Q: What about the “Toxicity Values, average” value (TPA-induced BCBL-1 cells; 0.64 μM) of the same compound?
A: The value was 1.160.

Q: What about the “Toxicity Values, samples 1-3” value (TPA-induced BCBL-1 cells; 0.64 μM) of the same compound?
A: Its value is 1.034 and 1.201 and 1.245.

Q: What about the “Toxicity Values, % cell control” value (TPA-induced BCBL-1 cells; 2 μM) of the same compound?
A: Its value is 111.7%.

Q: What about the “Toxicity Values, average” value (TPA-induced BCBL-1 cells; 2 μM) of the same compound?
A: Its value is 1.172.

Q: What about the “Toxicity Values, samples 1-3” value (TPA-induced BCBL-1 cells; 2 μM) of the same compound?
A: Its value is 1.155 and 1.182 and 1.179.

Q: And the “Toxicity Values, % cell control” value (TPA-induced BCBL-1 cells; 6.4 μM)?
A: The value was 111.5%.

Q: What about the “Toxicity Values, average” value (TPA-induced BCBL-1 cells; 6.4 μM) of the same compound?
A: Its value is 1.170.

Q: What about the “Toxicity Values, samples 1-3” value (TPA-induced BCBL-1 cells; 6.4 μM) of the same compound?
A: The value was 1.198 and 1.119 and 1.193.

Q: And the “Toxicity Values, % cell control” value (TPA-induced BCBL-1 cells; 20 μM)?
A: The value was 69.5%.

Q: And the “Toxicity Values, average” value (TPA-induced BCBL-1 cells; 20 μM)?
A: The value was 0.729.

Q: And the “Toxicity Values, samples 1-3” value (TPA-induced BCBL-1 cells; 20 μM)?
A: The value was 0.701 and 0.706 and 0.782.

Q: And the “Toxicity Values, % cell control” value (TPA-induced BCBL-1 cells; 64 μM)?
A: The value was 1.5%.

Q: What about the “Toxicity Values, average” value (TPA-induced BCBL-1 cells; 64 μM) of the same compound?
A: Its value is 0.016.

Q: And the “Toxicity Values, samples 1-3” value (TPA-induced BCBL-1 cells; 64 μM)?
A: The value was 0.020 and 0.016 and 0.013.

Q: And the “Toxicity Values, % cell control” value (TPA-induced BCBL-1 cells; 200 μM)?
A: The value was 6.4%.

Q: And the “Toxicity Values, average” value (TPA-induced BCBL-1 cells; 200 μM)?
A: The value was 0.067.

Q: And the “Toxicity Values, samples 1-3” value (TPA-induced BCBL-1 cells; 200 μM)?
A: The value was 0.068 and 0.067.

Q: What about the CC50 [1] of the same compound?
A: The CC50 was 32.6 µM.

Q: And the MIC (Curvularia lunata; Curvularia lunata, growth inhibited or reduced at least 90%)?
A: Its MIC is 0.03 µg/mL (≈ 0.149 µM).

Q: And the “activity against Curvularia lunata (in words)” value (Curvularia lunata; in vitro)?
A: Its value is “active”.

Q: And the reverse transcriptase data (HIV-1 cell line, CEMRF; day 4)?
A: Its reverse transcriptase data is 6521.

Q: What about the reverse transcriptase data (HIV-1 cell line, CEMRF; day 67) of the same compound?
A: The reverse transcriptase data was 9241.

Q: What about the reverse transcriptase data (HIV-1 cell line, CEMRF; day 71) of the same compound?
A: The reverse transcriptase data was 8422.

Q: What about the reverse transcriptase data (HIV-1 cell line, CEMRF; day 74) of the same compound?
A: The reverse transcriptase data was 8643.

Q: And the resistance developing (HIV-1 cell line, CEMRF; by day 186 at the 15 and 30 μg/ml level)?
A: Its resistance developing is “no indication of resistance developing”.

Q: And the “reverse transcriptase data on continuation (in words)” value (HIV-1 cell line, CEMRF; run through 242 days)?
A: The value was “data remained consistent”.

Q: And the “Reverse Transcriptase Activity, % virus control” value (HIV-2 virus, CEMROD; Table 1, 0.32 μg/ml)?
A: Its value is 119%.

Q: And the “Reverse Transcriptase Activity, average” value (HIV-2 virus, CEMROD; Table 1, 0.32 μg/ml)?
A: The value was 5947.

Q: And the “Reverse Transcriptase Activity, samples 1-3” value (HIV-2 virus, CEMROD; Table 1, 0.32 μg/ml)?
A: Its value is 5878 and 5529 and 6435.

Q: And the “Reverse Transcriptase Activity, % virus control” value (HIV-2 virus, CEMROD; Table 1, 1 μg/ml)?
A: Its value is 103.8%.

Q: What about the “Reverse Transcriptase Activity, average” value (HIV-2 virus, CEMROD; Table 1, 1 μg/ml) of the same compound?
A: Its value is 5188.

Q: And the “Reverse Transcriptase Activity, samples 1-3” value (HIV-2 virus, CEMROD; Table 1, 1 μg/ml)?
A: The value was 5002 and 5086 and 5476.

Q: And the “Reverse Transcriptase Activity, % virus control” value (HIV-2 virus, CEMROD; Table 1, 1.0 μg/ml)?
A: The value was 48.1%.

Q: And the “Reverse Transcriptase Activity, average” value (HIV-2 virus, CEMROD; Table 1, 1.0 μg/ml)?
A: The value was 2403.

Q: What about the “Reverse Transcriptase Activity, samples 1-3” value (HIV-2 virus, CEMROD; Table 1, 1.0 μg/ml) of the same compound?
A: Its value is 2812 and 2206 and 2190.

Q: And the “Reverse Transcriptase Activity, % virus control” value (HIV-2 virus, CEMROD; Table 1, 3.2 μg/ml)?
A: The value was 84.0%.

Q: What about the “Reverse Transcriptase Activity, average” value (HIV-2 virus, CEMROD; Table 1, 3.2 μg/ml) of the same compound?
A: The value was 4201.

Q: What about the “Reverse Transcriptase Activity, samples 1-3” value (HIV-2 virus, CEMROD; Table 1, 3.2 μg/ml) of the same compound?
A: The value was 4005 and 4017 and 4580.

Q: And the “Reverse Transcriptase Activity, % virus control” value (HIV-2 virus, CEMROD; Table 1, 32 μg/ml)?
A: The value was 8.1%.

Q: What about the “Reverse Transcriptase Activity, average” value (HIV-2 virus, CEMROD; Table 1, 32 μg/ml) of the same compound?
A: The value was 407.

Q: What about the “Reverse Transcriptase Activity, samples 1-3” value (HIV-2 virus, CEMROD; Table 1, 32 μg/ml) of the same compound?
A: Its value is 382 and 390 and 450.

Q: And the “Reverse Transcriptase Activity, % virus control” value (HIV-2 virus, CEMROD; Table 1, 100 μg/ml)?
A: Its value is 1.4%.

Q: And the “Reverse Transcriptase Activity, average” value (HIV-2 virus, CEMROD; Table 1, 100 μg/ml)?
A: The value was 72.

Q: And the “Reverse Transcriptase Activity, samples 1-3” value (HIV-2 virus, CEMROD; Table 1, 100 μg/ml)?
A: Its value is 80 and 68.

Q: What about the “Reverse Transcriptase Activity, % virus control” value (HIV-2 virus, CEMROD; [2]) of the same compound?
A: The value was 116.6%.

Q: And the “Reverse Transcriptase Activity, average” value (HIV-2 virus, CEMROD; [2])?
A: Its value is 5616.

Q: And the “Reverse Transcriptase Activity, samples 1-3” value (HIV-2 virus, CEMROD; [2])?
A: The value was 4758 and 5725 and 6365.

Q: And the “Reverse Transcriptase Activity, % virus control” value (HIV-2 virus, CEMROD; [3])?
A: The value was 121.1%.

Q: And the “Reverse Transcriptase Activity, average” value (HIV-2 virus, CEMROD; [3])?
A: Its value is 5833.

Q: What about the “Reverse Transcriptase Activity, samples 1-3” value (HIV-2 virus, CEMROD; [3]) of the same compound?
A: The value was 4251 and 6264 and 6984.

Q: And the “Reverse Transcriptase Activity, % virus control” value (HIV-2 virus, CEMROD; [4])?
A: Its value is 51.1%.

Q: What about the “Reverse Transcriptase Activity, average” value (HIV-2 virus, CEMROD; [4]) of the same compound?
A: Its value is 2463.

Q: What about the “Reverse Transcriptase Activity, samples 1-3” value (HIV-2 virus, CEMROD; [4]) of the same compound?
A: Its value is 2776 and 2531 and 2081.

Q: What about the “Reverse Transcriptase Activity, % virus control” value (HIV-2 virus, CEMROD; [5]) of the same compound?
A: The value was 100.0%.

Q: And the “Reverse Transcriptase Activity, average” value (HIV-2 virus, CEMROD; [5])?
A: The value was 4819.

Q: And the “Reverse Transcriptase Activity, samples 1-3” value (HIV-2 virus, CEMROD; [5])?
A: The value was 5050 and 5352 and 4054.

Q: What about the “Reverse Transcriptase Activity, % virus control” value (HIV-2 virus, CEMROD; [6]) of the same compound?
A: Its value is 4.1%.

Q: What about the “Reverse Transcriptase Activity, average” value (HIV-2 virus, CEMROD; [6]) of the same compound?
A: Its value is 197.

Q: And the “Reverse Transcriptase Activity, samples 1-3” value (HIV-2 virus, CEMROD; [6])?
A: The value was 173 and 177 and 241.

Q: What about the “Reverse Transcriptase Activity, % virus control” value (HIV-2 virus, CEMROD; [7]) of the same compound?
A: Its value is 0.9%.

Q: What about the “Reverse Transcriptase Activity, average” value (HIV-2 virus, CEMROD; [7]) of the same compound?
A: The value was 44.

Q: And the “efficacy in treating HIV (in words)” value (HIV-2 virus, CEMROD; at the higher concentrations)?
A: Its value is “shows efficacy”.
